Data reported in paper PMC8565777, “The chitinolytic activity of the Curtobacterium sp. isolated from field-grown soybean and analysis of its genome sequence” (PLoS ONE, 2021).

Test system: T1, GH18 chitinase from Curtobacterium sp. GD1 (carbohydrate binding protein, CBP)
T1 construct: native secreted enzyme, partially purified from chitin-induced culture supernatant (two major bands); 429 aa precursor, predicted 31 aa signal peptide removed; genome has 3 GH18 genes
Experiment: colorimetric p-nitrophenol release at […] nm, Lineweaver-Burk
Assay type: biochemical
Settings: 100 mmol/L sodium phosphate pH 7.0, 37 °C, partially purified enzyme; substrate range 3-90 mmol/L; substrate of the Km not restated beside the value; unit printed as mmol (mmol/L presumably meant)

## CC(=O)N[C@H]1[C@H](Oc2ccc([N+](=O)[O-])cc2)O[C@H](CO)[C@@H](O[C@@H]2O[C@H](CO)[C@@H](O[C@@H]3O[C@H](CO)[C@@H](O)[C@H](O)[C@H]3NC(C)=O)[C@H](O)[C@H]2NC(C)=O)[C@@H]1O [p-nitrophenyl-β-D-N,N’,N”-triacetylchitotriose]
  Km: 10 mmol
